“Also recorded” adds a separate entry of the source. Where two headings read alike, the source gives them in different places.

The target of one data set is T1, human SERT (Homo sapiens, UniProt P31645).
T1 construct: expressed in transfected cells; cells as described by Eshleman et al., J. Pharmacol. Exp. Ther. 1995, 274:276-283
Description: cell-based.

Another data set has as its target T2, human DAT (Homo sapiens, UniProt Q01959).
T2 construct: expressed in transfected cells; cells as described by Chen et al., J. Neurochem; 2004, 89:853-864
Description: Inhibition of [3H]DA uptake in cells expressing cloned human DAT. The data set is classed as cell-based.

The target in another data set is T3, human NET (Homo sapiens, UniProt P23975).
T3 construct: expressed in transfected cells; cells as described by Reith et al., J. Neurosci
T3 sequence (P23975 whole entry): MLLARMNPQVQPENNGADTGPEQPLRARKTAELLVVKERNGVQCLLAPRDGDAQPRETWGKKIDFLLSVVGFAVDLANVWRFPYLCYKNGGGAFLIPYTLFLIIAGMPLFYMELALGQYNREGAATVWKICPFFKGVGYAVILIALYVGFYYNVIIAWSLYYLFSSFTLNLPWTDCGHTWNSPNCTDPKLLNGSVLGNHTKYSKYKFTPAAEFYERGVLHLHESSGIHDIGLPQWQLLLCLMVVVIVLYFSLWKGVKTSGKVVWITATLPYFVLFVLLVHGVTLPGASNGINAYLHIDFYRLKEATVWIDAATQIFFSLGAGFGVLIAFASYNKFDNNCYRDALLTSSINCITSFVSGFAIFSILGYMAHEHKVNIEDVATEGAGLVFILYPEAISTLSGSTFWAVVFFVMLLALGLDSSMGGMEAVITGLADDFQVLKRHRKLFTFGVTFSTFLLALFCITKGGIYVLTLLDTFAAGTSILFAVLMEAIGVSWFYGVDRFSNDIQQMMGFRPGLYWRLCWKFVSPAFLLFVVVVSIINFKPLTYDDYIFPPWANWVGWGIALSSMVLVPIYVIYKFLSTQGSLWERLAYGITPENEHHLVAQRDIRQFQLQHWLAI
Put plainly: cell-based.

A further data set relates to Male C57BL/6 mice. Put plainly: Locomotor ambulatory activity. The format is in vivo. The text has this: Many, but not all, psychostimulants with potent action at DAT, also stimulate locomotor ambulatory activity in rodents. […] Male C57BL/6 mice were contained in a box equipped with infrared beams, the consecutive interruption of which by horizontal activity by the mouse provided a measure for ambulation.

Data set [1] is described as follows: Brain uptake: brain and plasma levels by mass spectrometry. As to conditions: for concentration at 5 min / concentration at 30 min: male, CD-1, mouse, intraperitoneal, 30 mg/kg. The procedure:
Data shown are mean±SEM (vertical bar).
Brain and plasma levels of 11 were determined by mass spectrometry.

The test system of the next data set is adult male C57BL/6 mice. Put plainly: Forced swim test model of antidepressant-like activity. The format is in vivo. The note with it: vs saline. The procedure:
Data are mean ±SEM (vertical bar). ***P<0.001, n=7-9 (One-way ANOVA and Bonferroni post-hoc tests).
The Forced Swim Test (FST) is a rodent model often used to evaluate the anti-depressive effect of therapeutics. Rats swim under conditions in which escape is not possible. On the first day, rats are forced to swim for 15 minutes. The animals are observed to initially struggle to escape from the water. They then adopt a posture of immobility making only movements necessary to keep their heads above water. The rats are retested 24 hours later. The immobility increases. Treatment with standard antidepressant drugs within the 24 hours between the first exposure to forced swimming and retesting can block facilitated immobility, an effect which is associated with antidepressant efficacy in humans. See Porsolt et al, (1977) Nature 266:730-732; Detke et al. (1995) Psychopharmacology 121:66-72.
Antidepressant-like activity of compound 11 was tested in the forced swim test model as previously described (Porsolt et al., supra; Castagne et al. (2011) Curr Protoc Neurosci 55: Unit 8.10A). Briefly, adult male C57BL/6 mice (N=7-9/group) were placed into individual glass cylinders containing clean 25° C. (±1° C.) water, 15 cm deep for 15 minutes. Mice were removed, dried and returned to their home cages. A second 6-minute swim test was given 24 hours after the first. Saline (3 ml/kg, i.p.), Compound 11 (30 mg/kg, i.p.) or desipramine (10 mg/kg, i.p.; a well-known antidepressant, used as a positive control) were administered […], 5 hours, and 1 hour before the second swim test (i.e., 30 minutes, 19 hours and 23 hours after the first swim). Test sessions were video recorded. Behavior during the 6-minute swim test was scored from the videotapes. The cumulative amount of time that the mouse was immobile in the water during the last 4 minutes of the test was measured, as was the latency for the mouse to show the first bout of immobility behavior. Immobility was defined as the mouse performing no movements except those necessary to keep the head above the water (e.g., no swimming or climbing behaviors). […] Immobility scores were analyzed by a one-way ANOVA, followed by the Bonferroni post-hoc analysis.

For data set [2] the following is noted: 25 mg/kg i.p., reported levels, cited from earlier work.
[3] abbreviates: tested at 10 mg/kg and 30 mg/kg.

T2 sequence (Q01959 whole entry): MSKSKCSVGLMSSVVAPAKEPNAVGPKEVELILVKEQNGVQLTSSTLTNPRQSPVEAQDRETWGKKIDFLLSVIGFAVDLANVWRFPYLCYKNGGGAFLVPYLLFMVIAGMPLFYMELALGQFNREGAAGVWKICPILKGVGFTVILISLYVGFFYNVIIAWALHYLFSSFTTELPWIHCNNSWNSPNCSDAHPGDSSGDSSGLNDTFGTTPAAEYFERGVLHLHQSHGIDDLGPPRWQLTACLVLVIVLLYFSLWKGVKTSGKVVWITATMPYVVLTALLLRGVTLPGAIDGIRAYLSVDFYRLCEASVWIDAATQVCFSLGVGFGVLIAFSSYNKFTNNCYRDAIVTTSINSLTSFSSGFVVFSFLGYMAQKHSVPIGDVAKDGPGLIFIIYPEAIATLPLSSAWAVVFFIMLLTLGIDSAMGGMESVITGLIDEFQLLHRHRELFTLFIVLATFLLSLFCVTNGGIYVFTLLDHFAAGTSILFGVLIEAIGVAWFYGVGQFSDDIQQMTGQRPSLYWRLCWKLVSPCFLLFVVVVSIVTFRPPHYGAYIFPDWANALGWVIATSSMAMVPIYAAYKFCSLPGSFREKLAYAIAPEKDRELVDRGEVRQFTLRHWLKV
T1 sequence (P31645 whole entry): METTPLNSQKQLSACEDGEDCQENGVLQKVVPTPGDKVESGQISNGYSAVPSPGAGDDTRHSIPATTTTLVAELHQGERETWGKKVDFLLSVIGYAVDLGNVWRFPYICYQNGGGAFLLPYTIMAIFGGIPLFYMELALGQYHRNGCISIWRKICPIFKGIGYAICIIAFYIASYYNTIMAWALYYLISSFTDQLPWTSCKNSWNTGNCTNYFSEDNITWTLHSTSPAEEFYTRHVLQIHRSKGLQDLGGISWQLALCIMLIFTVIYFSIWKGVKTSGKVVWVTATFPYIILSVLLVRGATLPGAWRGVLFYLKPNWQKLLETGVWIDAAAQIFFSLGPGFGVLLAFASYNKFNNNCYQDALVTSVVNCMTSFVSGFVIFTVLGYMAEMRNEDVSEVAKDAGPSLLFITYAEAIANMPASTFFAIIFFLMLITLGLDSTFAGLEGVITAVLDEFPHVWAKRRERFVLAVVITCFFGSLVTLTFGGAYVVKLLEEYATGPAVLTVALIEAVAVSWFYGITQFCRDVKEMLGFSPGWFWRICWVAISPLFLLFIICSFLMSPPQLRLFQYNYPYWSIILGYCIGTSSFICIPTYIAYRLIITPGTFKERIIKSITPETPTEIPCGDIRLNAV

For `CCCCC[C@@]12CC[C@@H](C[C@H](OC(=O)c3ccccc3)[C@@H]1C(=O)OC)N2C` [Compound 11c, Methyl (1R,2R,3S,5S)-(+)-1-pentyl-3-(benzoyloxy)-8-methyl-8-azabicyclo[3.2.1]octane-2-carboxylate], the inhibitory constant (Ki) on human SERT turned out to be 1890 nM; at human DAT, 1270 nM; on human NET it was 1600 ± 21 nM. Further, the Locomotor stimulation entry with Male C57BL/6 mice (setting [3]) is recorded as “locomotor activities below those observed with 10 mg/kg of cocaine”.

On to `COC(=O)C1[C@@H](OC(=O)c2ccccc2)CC2CCC1(C)N2C` (stereo partly drawn) [Compound 11, Methyl (1R,2R,3S,5S)-(−)-3-(benzoyloxy)-1,8-dimethyl-8-azabicyclo[3.2.I]octane-2-carboxylate], for which the Ki was determined as 435 ± 77 nM on human SERT, 168 ± 23 nM on human DAT and 488 ± 101 nM at human NET. Besides, the concentration at 5 min was 8600 ± 700 ng/mL in data set [1] (brain) and 3300 ± 200 ng/mL in data set [1] (plasma). Besides, the results for the concentration at 30 min in data set [1] (brain) and in data set [1] (plasma) were 3800 ± 200 ng/mL and 1700 ± 300 ng/mL, respectively. Further, in data set [1] (pharmacokinetic assay, compared with cocaine), the Brain penetration result is “occupies the brain as readily as cocaine”. In addition, the Immobility time result with adult male C57BL/6 mice (30 mg/kg i.p., last 4 minutes of the 6-minute swim test) was “decreased immobility time; also recorded: as effective as the antidepressant desipramine in reducing immobility time”. Also, the “Latency to first episode of immobility” value in the data set with adult male C57BL/6 mice (30 mg/kg i.p.) was “increased latency to first episode of immobility; also recorded: significantly increased over saline”. Also, the Locomotor stimulation entry in the data set with Male C57BL/6 mice (30 mg/kg intraperitoneally) is given as “did not stimulate locomotion to levels above those seen with 10 mg/kg of cocaine”.

Consider `COC(=O)[C@H]1[C@@H](OC(=O)c2ccccc2)C[C@@H]2CC[C@@]1(c1ccccc1)N2C` [Compound 11d, Methyl (1R,2R,3S,5S)-(−)-3-(benzoyloxy)-1-phenyl-8-methyl-8-azabicyclo[3.2.1]octane-2-carboxylate], for which the values for the Ki at human SERT, on human DAT and at human NET were 974 ± 308 nM, 31.9 ± 5.7 nM and 1980 nM, respectively. Besides, the “Potency at blocking DAT relative to cocaine” value at human DAT (versus cocaine) is “ten-fold more potent than cocaine”. In the data set on Male C57BL/6 mice (setting [3]), the Locomotor stimulation entry is “locomotor activities below those observed with 10 mg/kg of cocaine”.

In the case of `CC[C@@]12CC[C@@H](C[C@H](OC(=O)c3ccccc3)[C@@H]1C(=O)OC)N2C` [Compound 11b, Methyl (1R,2R,3S,5S)-(−)-1-ethyl-3-(benzoyloxy)-8-methyl-8-azabicyclo[3.2.1]octane-2-carboxylate], the results for the Ki at human SERT, on human DAT and on human NET were 1110 nM, 95.1 ± 17 nM and 598 ± 179 nM, respectively. Further, the Locomotor stimulation result in the data set on Male C57BL/6 mice (setting [3]) is recorded as “locomotor activities below those observed with 10 mg/kg of cocaine”.

Consider `COC(=O)[C@H]1[C@@H](OC(=O)c2ccccc2)C[C@@H]2CC[C@H]1N2C` [cocaine, methyl-(1R,2R,3S,5S)-3-(benzoyloxy)-8-methyl-8-azabicyclo[3.2.1]octane-2-carboxylate], for which the values for the Brain level in data set [2] (5 minutes) and in data set [2] (30 minutes) were 6700 ± 1200 ng/mL and 2300 ± 300 ng/mL, respectively. Also, the Plasma level is 1100 ± 100 ng/mL in data set [2] (5 minutes) and 400 ± 50 ng/mL in data set [2] (30 minutes). Also, the results for the Locomotor stimulation result with Male C57BL/6 mice (10 mg/kg intraperitoneally) and with Male C57BL/6 mice (30 mg/kg intraperitoneally) were “slight elevation above saline” and “pronounced increase”, respectively.

Take `CCC[C@@]12CC[C@@H](C[C@H](OC(=O)c3ccccc3)[C@@H]1C(=O)OC)N2C` [Compound 11a, Methyl (1R,2R,3S,5S)-(−)-1-propyl-3-(benzoyloxy)-8-methyl-8-azabicyclo[3.2.1]octane-2-carboxylate]: the Ki at human SERT worked out at 2990 nM; on human DAT, 871 ± 205 nM; on human NET, 796 ± 195 nM. The Locomotor stimulation entry in the data set on Male C57BL/6 mice (setting [3]) is on record as “locomotor activities below those observed with 10 mg/kg of cocaine”.

Regarding `CNCCCN1c2ccccc2CCc2ccccc21` [desipramine, reference compound], in the data set on adult male C57BL/6 mice (10 mg/kg i.p.), the Immobility time result is given as “decreased immobility time” and the “Latency to first episode of immobility” value is listed as “increased latency to first episode of immobility”.

By Ki is commonly meant a measure of affinity in units of concentration, obtained from inhibition or displacement.

The values are drawn from US8557842B2 (priority 2010, dated 2013).
